Results on 1 compound are retold here after ChEMBL document CHEMBL1127830, “A new photoaffinity analog of cGMP: potent inhibitor of cyclic nucleotide phosphodiesterase” (J Med Chem, 1994).

For orientation: pIC50 means the negative decadic logarithm of the IC50, by convention in mol/L. A higher pIC50 goes with a low IC50.

Test [1] in a line: Inhibition of rat bladder dome cAMP phosphodiesterase.
The nature of test [2]: Inhibition of rat bladder dome cGMP phosphodiesterase.
The nature of test [3]: Inhibition of human platelet cAMP phosphodiesterase.

pIC50: −log10 of the molar value.

For `NC1=NC(=O)C2N=CN([C@@H]3O[C@@H]4COP(=O)(O)O[C@H]4[C@H]3OC(=O)c3ccc(C(=O)c4ccccc4)cc3)C2=N1` (stereo partly drawn), the values for the negative logarithm of the IC50 (pIC50) in test [1], in test [2] and in test [3] were 4.80, 6.52 and 5.47, respectively.
